Laboratory results reported in PubChem BioAssay AID1919013 (Molecular Pharmacology Branch, DTP, NCI, 2023).
pIC50: −log10 of the molar value.

Tested on: LG0703-F498-PDC complex spheroid growth
Test: Anticancer human tumor LG0703-F498-PDC patient-derived lung adenocarcinoma cell line growth inhibition [AhR]
Conditions: for pIC50: curve of first compound; for viability, T/C: stronger effect = lower value
How it was run: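 Agents were dosed in half-log steps down from roughly clinical Cmax, or from 10 microM where Cmax was unknown, alone and with AhR antagonists. Read-out: percent test/control growth of tumor spheroids containing HUVEC and MSC stromal cells.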

[1] = second compound 0.1 µM, first compound 0.0316 µM
[2] = second compound 0.1 µM, first compound 0.1 µM
[3] = second compound 0.1 µM, first compound 0.316 µM
[4] = second compound 0.1 µM, first compound 1 µM
[5] = second compound 0.1 µM, first compound 3.16 µM
[6] = second compound 0.1 µM, first compound 10 µM
[7] = second compound 0.316 µM, first compound 0.0316 µM
[8] = second compound 0.316 µM, first compound 0.1 µM
[9] = second compound 0.316 µM, first compound 0.316 µM
[10] = second compound 0.316 µM, first compound 1 µM
[11] = second compound 0.316 µM, first compound 3.16 µM
[12] = second compound 0.316 µM, first compound 10 µM
[13] = second compound 1 µM, first compound 0.0316 µM
[14] = second compound 1 µM, first compound 0.1 µM
[15] = second compound 1 µM, first compound 0.316 µM
[16] = second compound 1 µM, first compound 1 µM
[17] = second compound 1 µM, first compound 3.16 µM
[18] = second compound 1 µM, first compound 10 µM
[19] = second compound 3.16 µM, first compound 0.0316 µM
[20] = second compound 3.16 µM, first compound 0.1 µM
[21] = second compound 3.16 µM, first compound 0.316 µM
[22] = second compound 3.16 µM, first compound 1 µM
[23] = second compound 3.16 µM, first compound 3.16 µM
[24] = second compound 3.16 µM, first compound 10 µM
[25] = second compound 10 µM, first compound 0.0316 µM
[26] = second compound 10 µM, first compound 0.1 µM
[27] = second compound 10 µM, first compound 0.316 µM
[28] = second compound 10 µM, first compound 1 µM
[29] = second compound 10 µM, first compound 3.16 µM
[30] = second compound 10 µM, first compound 10 µM
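Also: luminescence taken as a proxy for viable cell amount.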
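For viability, T/C in this document: percent of DMSO vehicle control where 100% means growth equal to vehicle.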

SMILES	pIC50 (second compound 0.1 µM)	pIC50 (second compound 0.316 µM)	pIC50 (second compound 1 µM)	pIC50 (second compound 3.16 µM)	pIC50 (second compound 10 µM)	viability, T/C [1] [%]	viability, T/C [2] [%]	viability, T/C [3] [%]	viability, T/C [4] [%]	viability, T/C [7] [%]	viability, T/C [8] [%]	viability, T/C [9] [%]	viability, T/C [10] [%]	viability, T/C [13] [%]	viability, T/C [14] [%]	viability, T/C [15] [%]	viability, T/C [16] [%]	viability, T/C [19] [%]	viability, T/C [20] [%]	viability, T/C [21] [%]	also measured
CC(C)c1c(-c2ccccc2)nc2c(C#N)c[nH]n2c1=O + Cc1cncc(-c2nc(NCCc3c[nH]c4ccccc34)c3ncn(C(C)C)c3n2)c1	< 5.00	< 5.00	< 5.00	> 7.50	> 7.50	108	101	87.2	101	97.3	93.4	96.5	95.8	106	119	101	91.6	39.1	40	36.9	viability, T/C [5]: 89.1%; viability, T/C [6]: 81.6%; viability, T/C [11]: 103%; viability, T/C [12]: 79.5%; viability, T/C [17]: 91.9%; viability, T/C [18]: 89.6%; viability, T/C [22]: 31.7%; viability, T/C [23]: 29.9%; viability, T/C [24]: 33%; viability, T/C [25]: 1.38%; viability, T/C [26]: 1.01%; viability, T/C [27]: 1.64%; viability, T/C [28]: 2.22%; viability, T/C [29]: 0.57%; viability, T/C [30]: 1.89%
CC1COCCN1c1cc(-c2ccnn2C)c2ccnc(-c3ccn[nH]3)c2n1 (stereo not given) + Cc1cncc(-c2nc(NCCc3c[nH]c4ccccc34)c3ncn(C(C)C)c3n2)c1	6.21	6.55	6.33	> 8.50	> 8.50	112	82.3	64.6	40.8	102	76.4	47.5	34.3	111	83.2	58.9	35.5	33.2	27.5	18.7	viability, T/C (second compound 0.1 µM, first compound 0.00316 µM): 104%; viability, T/C (second compound 0.1 µM, first compound 0.01 µM): 103%; viability, T/C (second compound 0.316 µM, first compound 0.00316 µM): 111%; viability, T/C (second compound 0.316 µM, first compound 0.01 µM): 120%; viability, T/C (second compound 1 µM, first compound 0.00316 µM): 119%; viability, T/C (second compound 1 µM, first compound 0.01 µM): 112%; viability, T/C (second compound 3.16 µM, first compound 0.00316 µM): 38%; viability, T/C (second compound 3.16 µM, first compound 0.01 µM): 34.6%; viability, T/C [22]: 15.7%; viability, T/C (second compound 10 µM, first compound 0.00316 µM): 1.11%; viability, T/C (second compound 10 µM, first compound 0.01 µM): 1.21%; viability, T/C [25]: 1.42%; viability, T/C [26]: 1.71%; viability, T/C [27]: 0.8%; viability, T/C [28]: 2.39%
COc1ccc([C@@H](O)c2cc(-c3ncnc4cc(N5CCOCC5)ccc34)c(F)cc2Cl)nn1 + Cc1cncc(-c2nc(NCCc3c[nH]c4ccccc34)c3ncn(C(C)C)c3n2)c1	5.27	5.32	5.34	> 7.50	> 7.50	87.8	107	98.1	82.2	105	97	97.8	82	95.9	104	103	92.4	36.7	42.4	34	viability, T/C [5]: 65.3%; viability, T/C [6]: 34%; viability, T/C [11]: 63.5%; viability, T/C [12]: 27.5%; viability, T/C [17]: 60.4%; viability, T/C [18]: 28.7%; viability, T/C [22]: 27.4%; viability, T/C [23]: 17.8%; viability, T/C [24]: 13%; viability, T/C [25]: 1.26%; viability, T/C [26]: 1%; viability, T/C [27]: 1.42%; viability, T/C [28]: 1.17%; viability, T/C [29]: 0.52%; viability, T/C [30]: 1.67%
